In patent US20250313555A1, “2-SUBSTITUTED THIAZOLE AND BENZOTHIAZOLE COMPOSITIONS AND METHODS AS DUX4 INHIBITORS” (ALTAY THERAPEUTICS, INC., priority 2022, published 2025):

Assays:
Type in all cases: cell-based
[1] = Cell cytotoxicity 50 assay (CC50), MB200 cells, cell titer glo; settings: human
In short: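 MB200 cells were seeded at 10 k/well in F10 medium with bFGF, 15% FBS and dexamethasone. Cells were exposed to serially diluted compound (from 10 mM stock) in triplicate for 72 h at 37 °C. Viability was read by CellTiter-Glo luminescence and CC50 was fitted.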

[2] = Cell cytotoxicity 50 assay (CC50), HEK cells; settings: human
In short: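 Starting from a 10 mM drug solution, serial dilutions were made in medium and added onto HEK cells, which were then incubated 72 h at 37 °C. Viability was read as CellTiter-Glo luminescence after 5 min, and CC50 was obtained by curve fitting.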

MBD3L2 RNA = assay: RNA isolation and qPCR to determine MBD3L2 RNA levels in FSHD cells; settings: 48 hrs
In short: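 FSHD cells were treated one day after seeding with a DUX4 inhibitor (11 μM or 3.6 μM) for 48 h. Total RNA was DNase-treated and reverse-transcribed with random hexamers and M-MLV. MBD3L2 was quantified by SYBR Green qPCR in triplicate against EEF1A as the reference gene.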

| SMILES | CC50 at 72 h [1] | CC50 at 72 h [2] | qPCR MBD3L2 Inhib at 11 µM (MBD3L2 RNA) |
| --- | --- | --- | --- |
| O=C(NCCCN1C(=O)CCC1=O)c1ccc(-c2nc3ccccc3s2)cc1 [Compound 7] | > 10 µM | > 10 µM | YES |
| O=C(CCN1CCCC1=O)Nc1ccc(Cc2nc3ccccc3s2)cc1 [Compound 8] | > 10 µM | > 10 µM | YES |
| O=C(NCCc1cncnc1)c1ccc(-c2nc3ccccc3s2)cc1 [Compound 11] | > 10 µM | > 10 µM | YES |
| O=C(NCCN1C(=O)CCC1=O)c1ccc(-c2nc3ccccc3s2)cc1 [Compound 22] | > 10 µM | > 10 µM | YES |
| CC(=O)CCCCC(=O)Nc1ccc(-c2nccs2)cc1 [Compound 23] | > 10 µM | > 10 µM | YES |
| CC(=O)NCCCC(=O)NC1CCC(c2nc3ccccc3s2)CC1 (stereo not shown) [Compound 28] | > 10 µM | > 10 µM | YES |
| O=C(CCCc1cnco1)Nc1ccc(Cc2nc3ccccc3s2)cc1 [Compound 66] | > 10 µM | > 10 µM | YES |
| CC(=O)NCCCC(=O)Nc1ccc(-c2nccs2)cc1 [Compound 70] | > 10 µM | > 10 µM | YES |
| CC(=O)NCCCC(=O)Nc1cccc(-c2nc3ccccc3s2)c1 [Compound 71] | > 10 µM | > 10 µM | YES |
| CC(=O)NCCCC(=O)Nc1cc(C)cc(-c2nc3ccccc3s2)c1 [Compound 72] | > 10 µM | > 10 µM | YES |
| O=C(CCCN1C(=O)CCC1=O)NC1CC(c2nc3ccccc3s2)C1 (stereo not shown) [Compound 89] | > 10 µM | > 10 µM | YES |
| O=C(CCCN1C(=O)CCC1=O)NC1CCC(c2nc3ccccc3s2)C1 (stereo not shown) [Compound 90] | > 10 µM | > 10 µM | YES |
| O=C(CCCN1C(=O)CCC1=O)NCCCc1nc2ccccc2s1 [Compound 91] | > 10 µM | > 10 µM | YES |
| O=C(CCCN1C(=O)CCC1=O)NC1CCCC1c1nc2ccccc2s1 (stereo not shown) [Compound 92] | > 10 µM | > 10 µM | YES |
| O=C(CCCN1C(=O)CCC1=O)N[C@H]1C[C@@H](c2nc3ccccc3s2)C1 [Compound 97] | > 10 µM | > 10 µM | YES |
| CC(=O)NCCCC(=O)Nc1cc(Cl)cc(-c2nc3ccccc3s2)c1 [Compound 101] | > 10 µM | > 10 µM | YES |
| CC(=O)NCCCC(=O)Nc1cc(Cl)cc(-c2nc3cc(F)ccc3s2)c1 [Compound 102] | > 10 µM | > 10 µM | YES |
| CC(=O)NCCCC(=O)NCCCc1nc2ccccc2s1 [Compound 106] | > 10 µM | > 10 µM | YES |
| CC(=O)NCCCC(=O)Nc1nc2ccccc2s1 [Compound 107] | > 10 µM | > 10 µM | YES |
| O=C(CCCN1C(=O)CCC1=O)Nc1nc2ccccc2s1 [Compound 108] |  |  | YES |
| CC(C)(NC(=O)CCCN1CCCC1=O)c1ccc(-c2nc3ccccc3s2)cc1 [Compound 110] | > 10 µM | > 10 µM | YES |
| CC(=O)NCCCC(=O)N[C@H]1C[C@H](c2nc3ccccc3s2)C1 [Compound 112] | > 10 µM | > 10 µM | YES |
| CC(=O)NCCCC(=O)N[C@H]1C[C@@H](c2nc3ccccc3s2)C1 [Compound 113] | > 10 µM | > 10 µM | YES |
| CC(=O)NCCCC(=O)N[C@@H]1CC[C@H](c2nc3ccccc3s2)C1 [Compound 114] | > 10 µM | > 10 µM | YES |
| CC(=O)NCCCC(=O)N[C@H]1CC[C@H](c2nc3ccccc3s2)C1 [Compound 115] | > 10 µM | > 10 µM | YES |
| O=C(CCCN1CCCC1=O)NC1CCCC1c1nc2ccccc2s1 (stereo not shown) [Compound 117] | > 10 µM | > 10 µM | YES |
